Data on one substance can be found in patent US20220105124A1, “METHODS FOR TARGETED TREATMENT AND PREDICTION OF PATIENT SURVIVAL IN CANCER” (University of Florida Research Foundation, Incorporated, priority 2019, published 2022).

This test relates to GBM cells with high VDR expression. In words: Treating GBM cells with high VDR expression with vitamin D. The class given is cell-based. As to conditions: GBM cells with high VDR expression treated with vitamin D. The source says: The influence of vitamin D is also examined for its role the link between VDR (vitamin D receptor) and GBM prognosis. Addition of vitamin D is used to determine if vitamin D will direct VDR to a beneficial pro-immune function of liganded VDR. Removal of vitamin D is used to determine if vitamin D deficiency leads to harmful pro-tumor unliganded VDR signal.

For Vitamin D, the Sox2 expression entry was “signal from VDR, leading to lower Sox2,”; the VDR expression entry was “unaffected”; the “abnormal signal from VDR” value is listed as “cells with vitamin D reduces this abnormal”.
